Measurements from patent US10844013B2, “Phenyl amino piperidine mTORC inhibitors and uses thereof” (Navitor Pharmaceuticals, Inc., priority 2016, dated 2020).
Counter-ions that a name gives are not always drawn. Like-named read-outs stand apart in the source and are kept apart here.

Tests used:
Type in all cases: cell-based
[1] = test system: pAKT (p-Akt 1/2/3 (Ser473)) in MCF-7 cells; assay: AlphaLISA Ultra pAKT assay
How it was run: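 MCF-7 cells seeded 20-24 h, medium refreshed for 2 h, then treated with compounds for 2 h at 0.5% final DMSO. Lysates frozen at −80 °C, then pAKT detected by AlphaLISA with acceptor and donor beads, 2 h each.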

[2] = test system: MCF-7 cells; assay: Radioactive glucose uptake in MCF-7 cells; settings: Homo sapiens, MCF7, 3H-2DG uptake
Protocol: Example 157: Radioactive Glucose Uptake in MCF-7 Cells
Assay Protocol • 1. Seed approximately 12,000 MCF-7 cells cultured without insulin per well in 96-well plates (BIOCOAT, #356690) and let the cells sit in hood for 30 min. (Cell culture medium: DMEM+10% FBS). • 2. Put the cell culture plates in TC incubator (5% CO2, 37° C.) and incubate overnight. • 3. Take out the cell plates and wash with prewarmed KRH buffer (37° C.) three times using BioTek plate washer. (KRH buffer preparation: 136 mM NaCl, 4.7 mM KCl, 1.25 mM MgCl2, 1.2 mM CaCl2), 20 mM HEPES, 0.1 mg/ml sodium pyruvate, 0.1% BSA, pH 7.4). • 4. Compound preparation and treatment: • a) Add 12 ul compound stock in 100% DMSO to the first column of Echo LDV plate • b) Serially dilute the compound solution in 100% DMSO (4 uL+8 uL DMSO) using Bravo for 9 doses • c) Dispense 350 nL compounds using Echo to the working plate. • d) i) Without compound preincubation condition, dispense 116 uL KRH buffer containing tritiated 2-deoxy-D-glucose (3H-2DG) and 2-deoxy-D-glucose (2DG) to the working plate and mix. • ii. With compound preincubation condition, dispense 110 uL KRH buffer only to the working plates and mix • e) Keep the compound working plate at 37° C. incubator until use • 5. Discard the KRH buffer (cells were kept in KRH buffer for 10-15 min before 2-DG addition) and transfer 100 uL compound working solution out to the cell culture plate using Bravo. Incubate for 20 mins at 37° C. (2DG final at 0.2 mM, 3H-2DG at 10 uCi/mL). • 6. Add prewarmed 50 uL KRH buffer (37° C.) containing 60 mM cold 2DG to the wells to stop the 2DG uptake using Multidrop combi • 7. Wash the cells with prewarmed PBS three times using BioTek plate washer • 8. Add 50 uL lysis buffer (0.1 M NaOH) into the assay plate to lyse the cells using Bravo and shake at 800 rpm for 30 min. • 9. Mix and transfer 20 uL lysate to a new white plate (Corning, #3610) and add 200 uL MicroScint-20 using Bravo • 10. Shake the plate at 1000 rpm for 30 min and count in a MicroBeta plate reader.

[3] = test system: pS6K1 (p-p70 S6 Kinase (Thr389)) in MCF-7 cells; assay: AlphaLISA Ultra pS6K1 assay; settings: 2 hours compound incubation
How it was run: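 MCF-7 cells seeded 20–24 h, medium refreshed 2 h, then treated 2 h with compound (0.5% DMSO final). Lysates probed for Thr389-phosphorylated p70 S6K by AlphaLISA Ultra, 2 h acceptor then 2 h donor bead incubation, read on a multimode reader.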

[4] = Homo sapiens, MCF7, 2 hours compound incubation

IC50 [1, 4] [nM] | IC50 [2] [nM] | IC50 ([3]; Homo sapiens, MCF7, 2 h) [nM] | IC50 ([3]; read-out: pS6K1 in MCF7: IC50) [nM] | IC50 ([1]; 2 hours compound incubation, read-out: pAKT in MCF7: IC50) [nM] | Compound
> 10000 | 10 to 1000 | 10 to 1000 |  |  | Cc1cc(C)c(C(=O)N2CCN(c3ccccn3)C(CO)C2)cc1NC1CCN(c2ccccc2C#N)CC1 (single isomer, unassigned) [I-48, 2-[4-({5-[(3R or 3S)-3-(hydroxymethyl)-4-(pyridin-2-yl)piperazine-1-carbonyl]-2,4-dimethylphenyl}amino)piperidin-1-yl]benzonitrile]
> 10000 | 10 to 1000 |  | 10 to 1000 |  | Cc1cc(C)c(C(=O)N2CCN(c3ccccc3S(C)(=N)=O)CC2)cc1NC1CCN(c2ccccc2C#N)CC1 (single isomer, unassigned) [I-49, 2-(4-{[5-(4-{2-[(S or R)-imino(methyl)oxo-λ^6-sulfanyl]phenyl}piperazine-1-carbonyl)-2,4-dimethylphenyl]amino}piperidin-1-yl)benzonitrile]
> 10000 | 10 to 1000 | 10 to 1000 |  |  | Cc1cc(C)c(C(=O)N2CCN(c3ccccc3C#N)[C@H](CO)C2)cc1NC1CCN(c2ccccc2C#N)CC1 (single isomer, unassigned) [I-79, 2-[4-({5-[(3S or 3R)-4-(2-Cyanophenyl)-3-(hydroxymethyl)piperazine-1-carbonyl]-2,4-dimethylphenyl}amino)piperidin-1-yl]benzonitrile]
> 10000 | 10 to 1000 | 10 to 1000 |  |  | Cc1cc(C)c(C(=O)N2CCN(c3cccc(F)c3[S@@](C)(=N)=O)CC2)cc1NC1CCN(c2ccccc2C#N)CC1 (single isomer, unassigned) [I-88]
 | 10 to 1000 |  |  | > 10000 | Cc1cc(C)c(C(=O)N2CCN(c3cccnc3[S@](C)(=N)=O)CC2)c(C)c1NC1CCN(c2ncccc2Cl)CC1 (stereo in doubt) [I-176, (3-(4-(3-((1-(3-chloropyridin-2-yl)piperidin-4-yl)amino)-2,4,6-trimethylbenzoyl)piperazin-1-yl)pyridin-2-yl)(imino)(methyl)-16-sulfanone Trifluoroacetate Salt]
> 10000 | 10 to 1000 | 10 to 1000 |  |  | Cc1cc(C)c(N(CCO)C2CCN(c3ccccc3C#N)CC2)cc1C(=O)N1CCN(c2ccccc2S(N)(=O)=O)CC1 [I-1, 2-(4-(5-((1-(2-Cyanophenyl)piperidin-4-yl)(2-hydroxyethyl)amino)-2,4-dimethylbenzoyl)piperazin-1-yl)benzenesulfonamide]
> 10000 | 10 to 1000 | 10 to 1000 |  |  | Cc1cc(C)c(C(=O)N2CCN(c3cccnc3S(N)(=O)=O)CC2)c(C)c1NC1CCN(c2ccccc2C#N)CC1 [I-2, 3-(4-(3-(1-(2-Cyanophenyl)piperidin-4-ylamino)-2,4,6-trimethylbenzoyl)piperazin-1-yl)pyridine-2-sulfonamide]
> 10000 | 10 to 1000 | 10 to 1000 |  |  | Cc1cc(C)c(C(=O)N2CCN(c3cccnc3S(N)(=O)=O)CC2)cc1NC1CCN(c2ccccc2C#N)CC1 [I-3, 3-(4-(5-(1-(2-Cyanophenyl)piperidin-4-ylamino)-2,4-dimethylbenzoyl)piperazin-1-yl)pyridine-2-sulfonamide]
> 10000 | > 10000 | 1000 to 3000 |  |  | Cc1cc(C)c(C(=O)N2CCN(c3cccc(S(N)(=O)=O)c3)CC2)cc1NC1CCN(c2ccccc2Cl)CC1 [I-4, 3-(4-(5-(1-(2-Chlorophenyl)piperidin-4-ylamino)-2,4-dimethylbenzoyl)piperazin-1-yl)benzenesulfonamide]
> 10000 | > 10000 | > 10000 |  |  | Cc1cc(C)c(C(=O)N2CCN[C@@H](CO)C2)cc1NC1CCN(c2ccccc2C#N)CC1 [I-6, (R)-2-(4-(5-(3-(Hydroxymethyl)piperazine-1-carbonyl)-2,4-dimethylphenylamino)piperidin-1-yl)benzonitrile]
> 10000 |  | 10 to 1000 |  |  | Cc1cc(C)c(C(=O)N2CCN(c3ncccc3S(N)(=O)=O)CC2)c(C)c1N[C@H]1CCN(c2ccccc2C#N)C[C@@H]1C [I-181, 2-(4-(3-(((3S,4S)-1-(2-cyanophenyl)-3-methylpiperidin-4-yl)amino)-2,4,6-trimethylbenzoyl)piperazin-1-yl)pyridine-3-sulfonamide]
> 10000 |  | 10 to 1000 |  |  | Cc1cc(C)c(C(=O)N2CCN(c3ccccn3)[C@H](CO)C2)cc1NC1CCN(c2ccccc2OC(F)(F)F)CC1 [I-183, (S)-(2,4-dimethyl-5-(1-(2-(trifluoromethoxy)phenyl)piperidin-4-ylamino)phenyl)(3-(hydroxymethyl)-4-(pyridin-2-yl)piperazin-1-yl)methanone]
> 10000 |  | 10 to 1000 |  |  | Cc1cc(C)c(C(=O)N2CCN(c3ccccn3)[C@H](CO)C2)cc1NC1CCN(c2ccccc2OC(F)F)CC1 [I-184, (S)-(5-(1-(2-(difluoromethoxy)phenyl)piperidin-4-ylamino)-2,4-dimethylphenyl)(3-(hydroxymethyl)-4-(pyridin-2-yl)piperazin-1-yl)methanone]
> 10000 |  | 10 to 1000 |  |  | Cc1cc(C)c(C(=O)N2CCN(c3cccnc3S(N)(=O)=O)CC2)c(C)c1NC1CCN(c2ncccc2Cl)CC1 [I-185, 3-(4-(3-(1-(3-chloropyridin-2-yl)piperidin-4-ylamino)-2,4,6-trimethylbenzoyl)piperazin-1-yl)pyridine-2-sulfonamide]
> 10000 |  | 10 to 1000 |  |  | Cc1cc(C)c(C(=O)N2CCN(c3ncccc3S(N)(=O)=O)CC2)c(C)c1NC1CCN(c2ncccc2Cl)CC1 [I-186, 2-(4-(3-(1-(3-chloropyridin-2-yl)piperidin-4-ylamino)-2,4,6-trimethylbenzoyl)piperazin-1-yl)pyridine-3-sulfonamide]
> 10000 |  | > 10000 |  |  | Cc1cc(C)c(C(=O)N2CCN(c3cccc(F)c3S(N)(=O)=O)CC2)cc1NC1CCN(c2c(F)cc(F)cc2C#N)CC1 [I-187, 2-(4-(5-(1-(2-cyano-4,6-difluorophenyl)piperidin-4-ylamino)-2,4-dimethylbenzoyl)piperazin-1-yl)-6-fluorobenzenesulfonamide]
> 10000 |  | 1000 to 3000 |  |  | Cc1cc(C)c(C(=O)N2CCN(c3ncccc3S(N)(=O)=O)C[C@@H]2C)c(C)c1NC1CCN(c2ccccc2C#N)CC1 [I-188, (S)-2-(4-(3-(1-(2-cyanophenyl)piperidin-4-ylamino)-2,4,6-trimethylbenzoyl)-3-methylpiperazin-1-yl)pyridine-3-sulfonamide]
> 10000 |  | 10 to 1000 |  |  | Cc1cc(C)c(C(=O)N2CCN(c3cccc(F)c3[S@@](C)(=N)=O)C[C@@H]2C)c(C)c1NC1CCN(c2ccccc2C#N)CC1 [I-189, 2-(4-(3-((S)-4-(3-fluoro-2-((S)-S-methylsulfonimidoyl)phenyl)-2-methylpiperazine-1-carbonyl)-2,4,6-trimethylphenylamino)piperidin-1-yl)benzonitrile]
> 10000 |  | 10 to 1000 |  |  | Cc1cc(C)c(C(=O)N2CCN(c3cccc(F)c3[S@](C)(=N)=O)C[C@@H]2C)c(C)c1NC1CCN(c2ccccc2C#N)CC1 [I-190, 2-(4-(3-((S)-4-(3-fluoro-2-((R)-S-methylsulfonimidoyl)phenyl)-2-methylpiperazine-1-carbonyl)-2,4,6-trimethylphenylamino)piperidin-1-yl)benzonitrile]
 | 10 to 1000 |  |  |  | Cc1cc(C)c(C(=O)N2CCN(c3cccc(F)c3[S@](C)(=N)=O)C[C@@H]2C)c(C)c1NC1CCN(c2ccccc2C#N)CC1 [I-192, 2-(4-(3-((2S)-4-(3-fluoro-2-(S-methylsulfonimidoyl)phenyl)-2-methylpiperazine-1-carbonyl)-2,4,6-trimethylphenylamino)piperidin-1-yl)benzonitrile]
> 10000 |  | 1000 to 3000 |  |  | Cc1cc(C)c(C(=O)N2CCN(c3ncccc3S(N)(=O)=O)C[C@@H]2C)c(C)c1NC1CCN(c2ccc(F)cc2C#N)CC1 [I-193, (S)-2-(4-(3-(1-(2-cyano-4-fluorophenyl)piperidin-4-ylamino)-2,4,6-trimethylbenzoyl)-3-methylpiperazin-1-yl)pyridine-3-sulfonamide]
